Test results as given in patent US7996156B2, “Methods for predicting properties of molecules” (priority 2002, dated 2011).

target: T1, estrogen receptor (Rattus norvegicus, UniProt P06211); assay: Competitive ER binding assay with [3H]E2 in rat uterine cytosol (NCTR); conditions: not given
T1 construct: in rat uterine cytosol, which was obtained from ovariectomized uteri of Sprague-Dawley rats; from tissue; host or cells: uterine cytosol of ovariectomized Sprague-Dawley rats
T1 sequence (P06211 1-600): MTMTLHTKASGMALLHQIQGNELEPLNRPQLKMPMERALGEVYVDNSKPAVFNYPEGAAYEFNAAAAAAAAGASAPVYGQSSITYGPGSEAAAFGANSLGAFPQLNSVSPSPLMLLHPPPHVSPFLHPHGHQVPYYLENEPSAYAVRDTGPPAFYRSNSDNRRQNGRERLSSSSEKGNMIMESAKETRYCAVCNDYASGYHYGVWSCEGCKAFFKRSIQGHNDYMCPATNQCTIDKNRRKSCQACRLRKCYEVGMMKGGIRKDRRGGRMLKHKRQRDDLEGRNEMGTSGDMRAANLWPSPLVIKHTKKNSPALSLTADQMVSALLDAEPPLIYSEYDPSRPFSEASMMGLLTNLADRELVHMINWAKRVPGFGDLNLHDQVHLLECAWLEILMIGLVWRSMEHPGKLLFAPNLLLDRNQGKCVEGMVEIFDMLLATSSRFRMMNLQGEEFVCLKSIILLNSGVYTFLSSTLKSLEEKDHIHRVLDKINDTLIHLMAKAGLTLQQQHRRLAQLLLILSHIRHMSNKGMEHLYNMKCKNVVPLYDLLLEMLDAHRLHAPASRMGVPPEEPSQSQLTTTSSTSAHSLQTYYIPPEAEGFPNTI
Excerpt: The log relative binding activity (RBA) data for these 130 structurally diverse compounds was used to train the CoSCoSA models. The data was produced at NCTR using a competitive ER binding assay with radiolabeled estradiol ([^3H]E2) in rat uterine cytosol, which was obtained from ovariectomized uteri of Sprague-Dawley rats. […] For each of the 130 compounds, the ^13C 2D ^13C—^13C COSY NMR experiment was simulated using the ACD Labs CNMR version 5.0 2D predictor software. The COSY NMR spectra could be saved as two tables per compound.

Row | Compound | Exp. Log(RBA)
1 | COc1cc(O)c2c(=O)c(-c3ccc(O)cc3)coc2c1 [prunetin] | −2.74
2 | C[C@H]1CCCC(=O)CCCCCc2cc(O)cc(O)c2C(=O)O1 [zearalanone] | 0.32
3 | C#C[C@]1(O)CC[C@H]2[C@@H]3CCc4cc(OC)ccc4[C@H]3CC[C@@]21C [mestranol] | 0.35
4 | Oc1ccc(-c2ccccc2)cc1 [p-phenylphenol] | −3.04
5 | C[C@]12CC[C@@H]3c4ccc(O)c(O)c4CC[C@H]3[C@@H]1CC[C@@H]2O [4-hydroxyestradiol] | 2.24
6 | C[C@]12CC[C@@H]3c4ccc(O)cc4C[C@@H](CCCCCCCCC[S+]([O-])CCCC(F)(F)C(F)(F)F)[C@H]3[C@@H]1CC[C@@H]2O (stereo partly drawn) [ICI182780] | 1.57
7 | C[C@]12CC[C@H](O)C[C@@H]1CC[C@@H]1[C@@H]2CC[C@]2(C)[C@@H](O)CC[C@@H]12 [3β-androstanediol] | −0.92
8 | O=S(=O)(c1ccc(O)cc1)c1ccc(O)cc1 [4,4′-sulfonyldiphenol] | −3.07
9 | O=C1C[C@@H](c2ccc(O)cc2)Oc2cc(O)cc(O)c21 [naringenin] | −2.13
10 | C#C[C@]1(O)CC[C@H]2[C@@H]3CCc4cc(O)ccc4[C@H]3[C@@H](OC)C[C@@]21C [moxestrol] | 1.14
11 | O=c1cc(-c2ccccc2)oc2cc(O)c(O)c(O)c12 [baicalein] | −3.35
12 | Oc1ccc(-c2cc(Cl)ccc2Cl)cc1 [2,5-dichloro-4′-biphenylol] | −1.44
13 | CCC(C)(c1ccc(O)cc1)c1ccc(O)cc1 [bisphenol B] | −1.07
14 | CCCCCCCCCCCCc1ccc(O)cc1 [4-dodecylphenol] | −1.73
15 | 4-hydroxytamoxifen | 2.24
16 | COc1cc(C(=C(Cl)Cl)c2ccc(O)cc2)ccc1O [dihydroxymethoxychlorolefin] | 0.42

Row | Compound | Exp. Log(RBA)
17 | C[C@]12CC[C@@H]3c4cc(O)c(O)cc4CC[C@H]3[C@@H]1CC[C@@H]2O [2-hydroxyestradiol] | 1.47
18 | Oc1ccc(Cc2ccc(O)cc2)cc1 [bis-(4-hydroxyphenyl)methane] | −3.02
19 | Oc1ccc(Cl)cc1Cc1cc(Cl)ccc1O [2,2′-methylenebis(4-chlorophenol)] | −2.45
20 | CCC(C)(C)c1ccc(O)cc1 [4-tert-amylphenol] | −3.26
21 | O=C(C(=O)c1ccc(O)cc1O)c1ccc(O)cc1O [2,2′,4,4′-tetrahydroxybenzil] | −0.68
22 | O=C(/C=C/c1ccc(O)cc1)c1ccc(O)cc1O [2′,4,4′-trihydroxychalcone] | −1.26
23 | C[Si](C)(O[Si](C)(C)c1ccccc1)c1ccccc1 [1,3-diphenyltetramethyldisiloxane] | −3.16
24 | CCCOC(=O)c1ccc(O)cc1 [propyl-4-hydroxybenzoate] | −3.22
25 | O=c1c(-c2ccc(O)cc2)coc2cc(O)ccc12 [daidzein] | −1.65
26 | C[C@]12CC[C@@H](O)C[C@@H]1CC[C@@H]1[C@@H]2CC[C@]2(C)[C@@H](O)CC[C@@H]12 [3α-androstanediol] | −2.67
27 | Oc1cccc(-c2ccccc2)c1 [3-phenylphenol] | −3.44
28 | Oc1ccc(OCc2ccccc2)cc1 [4-benzyloxyphenol] | −3.44
29 | O=C(/C=C/c1ccccc1)c1ccccc1 [chalcone] | −2.82
30 | CC(C)(C)c1ccc(O)cc1 [4-tert-butylphenol] | −3.61
31 | Oc1ccc([C@H]2COc3cc(O)ccc3C2)cc1 [equol] | −0.82
32 | O=c1c(O)c(-c2cc(O)c(O)c(O)c2)oc2cc(O)cc(O)c12 [myricetin] | −2.75

same assay, conditions: relative binding affinity vs 17-β-estradiol (RBA 100), rat uterine cytosol, 130 compound training set

Row | Compound | Exp. Log(RBA)
33 | O=c1c(-c2ccc(O)c(O)c2)coc2cc(O)ccc12 [3′,4′,7-trihydroxyisoflavone] | −2.35
34 | 4-ethyl-7-OH-(p-meoxyphenol)-dihydro-1-benzopyran-2-one | −0.05
35 | CC/C(=C(/CC)c1ccc(OC)cc1)c1ccc(OC)cc1 [dietheylstilbestrol dimethyl ether] | −1.25
36 | COc1ccc(-c2coc3cc(O)cc(O)c3c2=O)cc1 [biochanin A] | −2.37
37 | C(=C(c1ccccc1)c1ccccc1)c1ccccc1 [triphenylethylene] | −2.78
38 | Oc1ccc(CCc2ccc(O)cc2)cc1 [4,4′-(1,2-ethanediyl)bisphenol] | −1.44
39 | C[C@@]12CCC[C@H]1[C@@H]1CCc3cc(O)ccc3[C@H]1CC2 [17-deoxyestradiol] | 1.14
40 | O=c1c(O)c(-c2ccc(O)c(O)c2)oc2cc(O)ccc12 [fisetin] | −2.35
41 | COc1ccc(C(c2ccc(O)cc2)C(Cl)(Cl)Cl)cc1 (stereo not drawn) [monohydroxymethoxychlor] | −0.89
42 | CCC(c1ccc2cc(O)ccc2c1)C(C)(C)C(=O)O (stereo not drawn) [α,α-dimethylbethyl allenolic acid] | −0.02
43 | Cc1cc(O)ccc1Cl [4-Cl-3-methylphenol] | −3.38
44 | C[C@H]1CCC[C@@H](O)CCCCCc2cc(O)cc(O)c2C(=O)O1 [β-zearalanol] | −0.19
45 | CCc1cccc(O)c1 [3-ethylphenol] | −3.87
46 | O=c1c(O)c(-c2ccc(O)cc2)oc2ccc(O)cc12 [3,6,4′-trihydroxyflavone] | −0.35
47 | CCCCCCCOc1ccc(O)cc1 [4-heptyloxyphenol] | −2.88
48 | O=C(c1ccccc1)c1ccc(O)cc1O [2,4-dihyroxybenzophenone] | −2.61
49 | O=c1cc(-c2ccccc2)oc2ccc(O)cc12 [6-hydroxyflavone] | −3.41
50 | C[C@H]1CCC[C@H](O)CCC/C=C/c2cc(O)cc(O)c2C(=O)O1 [α-zearalenol] | 1.63
51 | CCC(c1ccc(O)cc1)C(CC)c1c(C)cc(O)cc1C (stereo not drawn) [2,6-dimethylhexestrol] | 1.11
52 | COc1ccc(C(=C(Cl)Cl)c2ccc(O)cc2)cc1 [monohydroxymethoxychlorolefin] | −0.63
53 | O=c1c(O)c(-c2ccc(O)cc2O)oc2cc(O)cc(O)c12 [morin] | −3.35
54 | C[C@]12CC[C@@H]3c4ccc(O)cc4[C@@H](O)C[C@H]3[C@@H]1CC[C@@H]2O [1,3,5-Estratrien-3,6α-17β-triol] | −0.15

Row | Compound | Exp. Log(RBA)
55 | C[C@H]1CCC[C@@H](O)CCC/C=C/c2cc(O)cc(O)c2C(=O)O1 [β-zearalenol] | −0.69
56 | CCC(c1ccc(O)c(O)c1)C(CC)c1ccc(O)c(O)c1 (stereo not drawn) [3,3′-dihydroxyhestrol] | 1.19
57 | O=C(/C=C/c1ccc(O)cc1)c1ccccc1 [4-OH-chalcone] | −2.43
58 | COc1ccc2c(c1)CC[C@@H]1[C@@H]2CC[C@]2(C)[C@@H](O)[C@H](O)C[C@@H]12 [3-methylestriol] | −1.65
59 | O=C(O)c1ccccc1C(c1ccc(O)cc1)c1ccc(O)cc1 [phenolphthalin] | −3.67
60 | Oc1ccc(-c2ccc(Cl)cc2)cc1 [4-Cl-4′-biphenylol] | −2.18
61 | CC(C)(c1ccc(O)cc1)c1ccc(O)cc1 [bisphenol A] | −2.11
62 | C[C@]12CC[C@@H]3c4ccccc4CC[C@H]3[C@@H]1CC[C@@H]2O [3-deoxyestradiol] | −0.3
63 | O=C(OCc1ccccc1)c1ccc(O)cc1 [benzyl-4-hydroxybenzoate] | −2.54
64 | Oc1ccc(CCc2ccccc2)cc1 [4-phenethylphenol] | −2.69
65 | CC/C(=C(/CC)c1ccc(OC)cc1)c1ccc(O)cc1 [diethylstilbestrol monomethyl ether] | 1.31
66 | O=C1CC(c2cccc(O)c2)Oc2ccccc21 (stereo not drawn) [3′-OH-flavanone] | −2.78
67 | CCC(c1ccc(O)cc1)C(CC)c1ccc(OC)cc1 (stereo not drawn) [monomethyl ether hexestrol] | 0.97
68 | O=C1CC(c2ccccc2)Oc2ccc(O)cc21 (stereo not drawn) [6-hydroxyflavanone] | −3.05
69 | O=C1CC(c2ccc(O)cc2)Oc2ccccc21 (stereo not drawn) [4′-hydroxyflavanone] | −2.65
70 | COC(=O)c1ccc(O)cc1 [methyl-4-hydrobenzoate] | −3.44
71 | CCCCN(C)C(=O)CCCCCCCCCC[C@@H]1Cc2cc(O)ccc2[C@H]2CC[C@]3(C)[C@@H](O)CC[C@H]3[C@H]12 [ICI164384] | 1.16
72 | O=c1cc(-c2ccc(O)cc2)oc2ccc(O)cc12 [4,6-dihydroxyflavone] | −0.82
73 | O=C(/C=C/c1ccccc1)c1ccc(O)cc1 [4′-OH-chalcone] | −2.43
74 | CC[C@H]1c2ccc3cc(OC)ccc3c2CC[C@@]1(C)C(=O)O [doisynoestrol] | −2.74
75 | Oc1ccc(-c2ccccc2)c(Cl)c1 [2-Cl-4-biphenylol] | −2.77
